Consider 25 molecules from patent publication US12479827B2, “Heteroaromatic carboxamide derivatives as plasma kallikrein inhibitors” (Boehringer Ingelheim International GmbH, priority 2020, dated 2025).

In the test the target is T1, Human PKK (Homo sapiens, UniProt P03952).
T1 construct: purchased Enzyme Research Laboratories
T1 sequence (P03952 20-390 limits assumed): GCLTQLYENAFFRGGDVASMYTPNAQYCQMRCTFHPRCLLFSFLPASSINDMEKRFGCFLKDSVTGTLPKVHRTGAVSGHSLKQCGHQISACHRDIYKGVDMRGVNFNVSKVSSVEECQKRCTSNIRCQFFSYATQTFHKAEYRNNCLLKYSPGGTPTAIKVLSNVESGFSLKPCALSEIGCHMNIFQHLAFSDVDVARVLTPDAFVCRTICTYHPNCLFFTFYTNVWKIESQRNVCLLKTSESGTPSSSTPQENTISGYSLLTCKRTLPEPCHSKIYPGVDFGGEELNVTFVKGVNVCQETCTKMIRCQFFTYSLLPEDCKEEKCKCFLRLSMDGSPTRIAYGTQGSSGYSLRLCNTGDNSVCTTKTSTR
T1 sequence (P03952 391-638 limits assumed): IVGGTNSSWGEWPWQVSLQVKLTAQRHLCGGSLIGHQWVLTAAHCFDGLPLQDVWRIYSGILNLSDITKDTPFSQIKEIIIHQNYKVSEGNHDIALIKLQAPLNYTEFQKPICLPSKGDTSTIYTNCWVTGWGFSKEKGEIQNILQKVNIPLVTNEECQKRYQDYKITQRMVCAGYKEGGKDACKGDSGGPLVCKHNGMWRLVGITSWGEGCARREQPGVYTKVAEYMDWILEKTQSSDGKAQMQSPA
In words: Inhibition of PKK using an endpoint assay (human PKK). The note with it: fluorogenic substrate H-Pro-Phe-Arg-AMC, 1 h room temperature, method names human or rat PKK, table does not say which. Format: biochemical. How it is done: The ability of compounds of formula (I) to inhibit plasma kallikrein (PKK), Factor XIIa (FXIIa), Factor XIa (FXIa), Factor Xa (FXa), Factor IIa (alpha-thrombin; FIIa), plasmin, trypsin, tissue kallikrein 1 (TK1), Factor VIIa (FVIIa), or FVIIa complexed with Tissue Factor, phospholipids and CaCl2 (FVIIa/TF/PL/CaCl2) is determined using the following biochemical assays in assay buffer (100 mM Tris, 150 mM NaCL, adjusted to a pH of 7.8 with HCl, and containing 0.1% (w/v) BSA and 0.05% (v/v) Tween20) in the presence of 1% (v/v) DMSO:
Subsequently, PPACK II (Calbiochem) is added as a stop solution to achieve a final concentration of 1 μM and fluorescence is measured using an Envision Reader (PerkinElmer) with the wavelength excitation setting of 355 nm and the wavelength emission setting of 460 nm.
With `Cn1cnc2c1CC[C@H]2NC(=O)c1cnn(Cc2ccc(N3CC4(CC4)C3)cn2)c1` [Example 19, 1-[(5-{5-Azaspiro[2.3]hexan-5-yl}pyridin-2-yl)-methyl]-N-[(4R)-1-methyl-1H,4H,5H,6H-cyclopenta[d]imidazol-4-yl]-1H-pyrazole-4-carboxamide], the IC50 stood at 14.2 nM.

For `Cn1cnc2c1CC[C@H]2NC(=O)c1cn(Cc2ccc(N3CC4CC4C3)nc2OC(F)(F)F)cn1` (stereo partly drawn) [Example 38, 1-[(6-{3-Azabicyclo[3.1.0]hexan-3-yl}-2-(trifluoromethoxy)-pyridin-3-yl)methyl]-N-[(4R)-1-methyl-1H,4H,5H,6H-cyclopenta[d]imidazol-4-yl]-1H-imidazole-4-carboxamide], the IC50 came out at 3.4 nM.

`Cn1cnc2c1CC[C@H]2NC(=O)c1cnn(Cc2ccc(N3CC4CC4C3)nc2OC(F)(F)F)c1` (stereo partly drawn) [Example 58, 1-[(6-{3-Azabicyclo[3.1.0]hexan-3-yl}-2-(trifluoromethoxy)-pyridin-3-yl)methyl]-N-[(4R)-1-methyl-1H,4H,5H,6H-cyclopenta[d]imidazol-4-yl]-1H-pyrazole-4-carboxamide] registered an IC50 of 2.5 nM.

In turn, `CC(CO)c1nc(N2CC3CC3C2)ccc1Cn1cc(C(=O)N[C@@H]2CCc3c2ncn3C)cn1` (stereo partly drawn) [Example 59, 1-[(6-{3-Azabicyclo[3.1.0]hexan-3-yl}-2-(1-hydroxypropan-2-yl)pyridin-3-yl)methyl]-N-[(4R)-1-methyl-1H,4H,5H,6H-cyclopenta[d]imidazol-4-yl]-1H-pyrazole-4-carboxamide] showed an IC50 of 0.4 nM.

In the case of `Cn1cnc2c1CC[C@H]2NC(=O)c1cnn(Cc2ccc(N3CC4CC4C3)nn2)c1` (stereo partly drawn) [Example 60, 1-[(6-{3-Azabicyclo[3.1.0]hexan-3-yl}pyridazin-3-yl)methyl]-N-[(4R)-1-methyl-1H,4H,5H,6H-cyclopenta[d]imidazol-4-yl]-1H-pyrazole-4-carboxamide], the IC50 came out at 18.8 nM.

Turning to `Cn1cnc2c1CC[C@H]2NC(=O)c1cn(Cc2ccc(N3CC4(CC4)C3)nc2CO)nn1` [Example 61, 1-[(6-{5-Azaspiro[2.3]hexan-5-yl}-2-(hydroxymethyl)-pyridin-3-yl)methyl]-N-[(4R)-1-methyl-1H,4H,5H,6H-cyclo-penta[d]imidazol-4-yl]-1H-1,2,3-triazole-4-carboxamide], the IC50 is 3.1 nM.

`CC(C)Cc1nc(N2CC3CC3C2)ccc1Cn1cnc(C(=O)N[C@@H]2CCc3c2ncn3C)c1` (stereo partly drawn) [Example 100, 1-[(6-{3-Azabicyclo[3.1.0]hexan-3-yl}-2-(2-methylpropyl)pyridin-3-yl)methyl]-N-[(4R)-1-methyl-1H,4H,5H,6H-cyclopenta[d]imidazol-4-yl]-1H-imidazole-4-carboxamide] came in with an IC50 of 5.6 nM.

Molecule `Cc1cc(Cn2cnc(C(=O)N[C@@H]3CCc4c3ncn4C)c2)c(C)nc1N1CC2CC2C1` (stereo partly drawn) [Example 129, 1-[(6-{3-Azabicyclo[3.1.0]hexan-3-yl}-2,5-dimethylpyridin-3-yl)methyl]-N-[(4R)-1-methyl-1H,4H,5H,6H-cyclopenta[d]imidazol-4-yl]-1H-imidazole-4-carboxamide] showed an IC50 of 23.7 nM.

`Cc1cc(Cn2cc(C(=O)N[C@@H]3CCc4c3ncn4C)cn2)c(C)nc1N1CC2CC2C1` (stereo partly drawn) [Example 130, 1-[(6-{3-Azabicyclo[3.1.0]hexan-3-yl}-2,5-dimethylpyridin-3-yl)methyl]-N-[(4R)-1-methyl-1H,4H,5H,6H-cyclopenta[d]imidazol-4-yl]-1H-pyrazole-4-carboxamide] showed an IC50 of 20 nM.

In turn, `Cn1cnc2c1CC[C@H]2NC(=O)c1cn(Cc2ccc(N3CC4C(C3)C4(F)F)cn2)nn1` (stereo partly drawn) [Example 138, 1-[(5-{6,6-Difluoro-3-azabicyclo[3.1.0]hexan-3-yl}pyridin-2-yl)methyl]-N-[(4R)-1-methyl-1H,4H,5H,6H-cyclopenta[d]imidazol-4-yl]-1H-1,2,3-triazole-4-carboxamide] showed an IC50 of 2.2 nM.

With `CCc1nc(N2CC3(CC3)C2)ccc1Cc1cc(C(=O)N[C@@H]2CCc3c2ncn3C)on1` [Example 156, 3-[(6-{5-Azaspiro[2.3]hexan-5-yl}-2-ethylpyridin-3-yl)methyl]-N-[(4R)-1-methyl-1H,4H,5H,6H-cyclopenta[d]imidazol-4-yl]-1,2-oxazole-5-carboxamidef], it took 0.8 nM to reach half-maximal inhibition (IC50).

On to `Cn1cnc2c1CC[C@H]2NC(=O)c1cc(Cc2ccc(N3CC4(CC4)C3)nc2Cl)no1` [Example 157, 3-[(6-{5-Azaspiro[2.3]hexan-5-yl}-2-chloropyridin-3-yl)methyl]-N-[(4R)-1-methyl-1H,4H,5H,6H-cyclopenta[d]imidazol-4-yl]-1,2-oxazole-5-carboxamide], for which inhibition was half-maximal at 1.2 nM (IC50).

Molecule `Cc1nc(N2CC3(CC3)C2)ncc1Cn1cnc(C(=O)N[C@@H]2CCc3c2ncn3C)c1` [Example 172, 1-[(2-{5-Azaspiro[2.3]hexan-5-yl}-4-methylpyrimidin-5-yl)methyl]-N-[(4R)-1-methyl-1H,4H,5H,6H-cyclopenta[d]imidazol-4-yl]-1H-imidazole-4-carboxamide] displayed an IC50 of 8.1 nM.

For the molecule `Cn1cnc2c1CC[C@H]2NC(=O)c1cn(Cc2ccc(N3CC4C(C3)C4(F)F)nc2)c(Cl)n1` (stereo partly drawn) [Example 176, 2-Chloro-1-[(6-{6,6-difluoro-3-azabicyclo-[3.1.0]hexan-3-yl}pyridin-3-yl)methyl]-N-[(4R)-1-methyl-1H,4H,5H,6H-cyclopenta[d]imidazol-4-yl]-1H-imidazole-4-carboxamide], half-maximal inhibition (IC50) was put at 4.2 nM.

`CCc1nc(N2CC3CC3C2)ccc1Cc1ccc(C(=O)N[C@@H]2CCc3c2ncn3C)s1` (stereo partly drawn) [Example 183, 5-[(6-{3-Azabicyclo[3.1.0]hexan-3-yl}-2-ethylpyridin-3-yl)methyl]-N-[(4R)-1-methyl-1H,4H,5H,6H-cyclopenta[d]imidazol-4-yl]thiophene-2-carboxamide] yielded a half-inhibitory concentration (IC50) of 19.4 nM.

The molecule `Cc1nc(N2CC3C(C2)C3(F)F)ccc1Cc1ccc(C(=O)N[C@@H]2CCc3c2ncn3C)o1` (stereo partly drawn) [Example 189, 5-[(6-{6,6-Difluoro-3-azabicyclo[3.1.0]hexan-3-yl}-2-methylpyridin-3-yl)methyl]-N-[(4R)-1-methyl-1H,4H,5H,6H-cyclopenta[d]imidazol-4-yl]furan-2-carboxamide] had an IC50 of 22.1 nM.

As to `Cn1cnc2c1CC[C@H]2NC(=O)c1cnn(Cc2cc(F)c(N3CC4CC4C3)c(F)c2)c1` (stereo partly drawn) [Example 191, 1-[(4-{3-Azabicyclo[3.1.0]hexan-3-yl}-3,5-difluorophenyl)methyl]-N-[(4R)-1-methyl-1H,4H,5H,6H-cyclopenta[d]imidazol-4-yl]-1H-pyrazole-4-carboxamide], the midpoint of inhibition, the IC50, lay at 169 nM.

`Cn1cnc2c1CC[C@H]2NC(=O)c1cnc(Cc2cc(F)c(N3CC4CC4C3)c(F)c2)[nH]1` (stereo partly drawn) [Example 192, 2-[(4-{3-azabicyclo[3.1.0]hexan-3-yl}-3,5-difluorophenyl)methyl]-N-[(4R)-1-methyl-1H,4H,5H,6H-cyclopenta[d]imidazol-4-yl]-1H-imidazole-4-carboxamide]: the midpoint of inhibition, the IC50, lay at 1890 nM.

Molecule `Cn1cnc2c1CC[C@H]2NC(=O)c1cnn(Cc2cc(F)c(N3CC4CC4C3)c(C#N)c2)c1` (stereo partly drawn) [Example 195, 1-[(4-{3-azabicyclo[3.1.0]hexan-3-yl}-3-cyano-5-fluorophenyl)methyl]-N-[(4R)-1-methyl-1H,4H,5H,6H-cyclopenta[d]imidazol-4-yl]-1H-pyrazole-4-carboxamide] had an IC50 of 20.3 nM.

As to `Cn1cnc2c1CC[C@H]2NC(=O)c1cnn(Cc2cc(C#N)c(N3CC4CC4C3)c(C#N)c2)c1` (stereo partly drawn) [Example 197, 1-[(4-{3-azabicyclo[3.1.0]hexan-3-yl}-3,5-dicyanophenyl)methyl]-N-[(4R)-1-methyl-1H,4H,5H,6H-cyclopenta[d]imidazol-4-yl]-1H-pyrazole-4-carboxamide], the IC50 amounted to 13.4 nM.

With `Cc1cc(N2CC3CC3C2)c(C#N)cc1Cn1cc(C(=O)N[C@@H]2CCc3c2ncn3C)cn1` (stereo partly drawn) [Example 200, 1-[(4-{3-azabicyclo[3.1.0]hexan-3-yl}-5-cyano-2-methylphenyl)methyl]-N-[(4R)-1-methyl-1H,4H,5H,6H-cyclopenta[d]imidazol-4-yl]-1H-pyrazole-4-carboxamide], half-maximal inhibition (IC50) was put at 8.6 nM.

In the case of `Cc1cc(N2CC3CC3C2)ccc1Cn1cnc(C(=O)N[C@@H]2CCc3c2ncn3C)c1` (stereo partly drawn) [Example 205, 1-[(4-{3-azabicyclo[3.1.0]hexan-3-yl}-2-methylphenyl)methyl]-N-[(4R)-1-methyl-1H,4H,5H,6H-cyclopenta[d]imidazol-4-yl]-1H-imidazole-4-carboxamide], the concentration for half-maximal inhibition (IC50) was 8.3 nM.

Turning to `COc1nc(N2CC3C(C2)C3(F)F)ccc1Cn1cc(C(=O)N[C@@H]2CCc3c2ncn3C)cn1` (stereo partly drawn) [Example 221, 1-[(6-{6,6-Difluoro-3-azabicyclo[3.1.0]hexan-3-yl}-2-methoxypyridin-3-yl)methyl]-N-[(4R)-1-methyl-1H,4H,5H,6H-cyclopenta[d]imidazol-4-yl]-1H-pyrazole-4-carboxamide], 2.8 nM corresponded to half-maximal inhibition (IC50).

For `Cc1nc(N2CCC3(CC2)CC(C)(O)C3)ncc1Cn1cc(C(=O)N[C@@H]2CCc3c2ncn3C)cn1` [Example 223, 1-[(2-{2-Hydroxy-2-methyl-7-azaspiro[3.5]nonan-7-yl}-4-methylpyrimidin-5-yl)methyl]-N-[(4R)-1-methyl-1H,4H,5H,6H-cyclopenta[d]imidazol-4-yl]-1H-pyrazole-4-carboxamide], half-maximal inhibition (IC50) was put at 7540 nM.

As to `Cc1nc(N2C[C@@H]3[C@H](C#N)[C@@H]3C2)ncc1Cn1cc(C(=O)N[C@@H]2CCc3c2ncn3C)cn1` [Example 224, 1-({2-[(1R,5S,6S)-6-Cyano-3-azabicyclo[3.1.0]Lhexan-3-yl]-4-methylpyrimidin-5-yl}methyl)-N-[(4R)-1-methyl-1H,4H,5H,6H-cyclopenta[d]imidazol-4-yl]-1H-pyrazole-4-carboxamide], the IC50 was determined as 302 nM.

A word on the IC50: it is the concentration that inhibits the measured activity by half. High values mean weaker potency in that assay, low ones greater potency in that assay.
